Assay results from the OligoGym collection.
HELM strings list units from the 5' end as sugar, base in round brackets, then linkage (d deoxyribose, r ribose, m 2'-O-methyl, p phosphodiester). Strings are as the collection lists them; they lack the last nucleoside at the 3' end of the tested compound. [moe] = 2'-O-(2-methoxyethyl) (MOE); [sp] = phosphorothioate linkage; [m5C] = 5-methylcytosine

Target: UBE3A-ATS
Experiment: mouse, dose not given
Conditions: ASO

| Substance | 3 h FOB score |
| --- | --- |
| RNA1{[moe](A)[sp].[moe](A)[sp].[moe](G)[sp].[moe](G)[sp].[moe](G)[sp].d(T)[sp].d(A)[sp].d(A)[sp].d(T)[sp].d(A)[sp].d([m5C])[sp].d(G)[sp].d(G)[sp].d(A)[sp].d([m5C])[sp].[moe]([m5C])[sp].[moe](T)[sp].[moe]([m5C])[sp].[moe](A)}$$$$ (last 3' nucleoside missing) | 6.5 score 0-7 |
| RNA1{[moe](A)[sp].[moe](A)p.[moe](A)p.[moe](A)p.[moe](T)p.d(A)[sp].d([m5C])[sp].d([m5C])[sp].d(A)[sp].d([m5C])[sp].d(A)[sp].d(A)[sp].d(A)[sp].d(G)[sp].d(A)[sp].[moe](T)p.[moe](A)p.[moe](G)[sp].[moe](G)}$$$$ (last 3' nucleoside missing) | 2.5 score 0-7 |
| RNA1{[moe](A)[sp].[moe](A)p.[moe](A)p.[moe](A)p.[moe](T)p.d([m5C])[sp].d([m5C])[sp].d(A)[sp].d(T)[sp].d(T)[sp].d(T)[sp].d(G)[sp].d(T)[sp].d([m5C])[sp].d([m5C])[sp].[moe](A)p.[moe](G)p.[moe](T)[sp].[moe]([m5C])}$$$$ (last 3' nucleoside missing) | 2.3 score 0-7 |
| RNA1{[moe](A)[sp].[moe](A)p.[moe](A)p.[moe](A)p.[moe]([m5C])p.d(G)[sp].d([m5C])[sp].d(A)[sp].d(A)[sp].d(T)[sp].d(G)[sp].d(T)[sp].d(A)[sp].d(T)[sp].d([m5C])[sp].[moe](A)p.[moe](G)p.[moe](G)[sp].[moe]([m5C])}$$$$ (last 3' nucleoside missing) | 0.7 score 0-7 |
| RNA1{[moe](A)[sp].[moe](A)p.[moe](A)p.[moe](T)p.[moe]([m5C])p.d([m5C])[sp].d(A)[sp].d(T)[sp].d(T)[sp].d(T)[sp].d(G)[sp].d(T)[sp].d([m5C])[sp].d([m5C])[sp].d(A)[sp].[moe](G)p.[moe](T)p.[moe]([m5C])[sp].[moe](T)}$$$$ (last 3' nucleoside missing) | 4.2 score 0-7 |
| RNA1{[moe](A)[sp].[moe](A)p.[moe](A)p.[moe]([m5C])p.[moe](G)p.[moe]([m5C])p.d(A)[sp].d(A)[sp].d(T)[sp].d(G)[sp].d(T)[sp].d(A)[sp].d(T)[sp].d([m5C])[sp].d(A)[sp].d(G)[sp].[moe](G)p.[moe]([m5C])[sp].[moe](A)}$$$$ (last 3' nucleoside missing) | 3 score 0-7 |
| RNA1{[moe](A)[sp].[moe](A)p.[moe](A)p.[moe]([m5C])p.d(G)[sp].d([m5C])[sp].d(A)[sp].d(A)[sp].d(T)[sp].d(G)[sp].d(T)[sp].d(A)[sp].d(T)[sp].d([m5C])[sp].[moe](A)p.[moe](G)p.[moe](G)p.[moe]([m5C])[sp].[moe](A)}$$$$ (last 3' nucleoside missing) | 2 score 0-7 |
| RNA1{[moe](A)[sp].[moe](A)p.[moe](G)p.[moe](T)p.[moe](A)p.d(T)[sp].d(A)[sp].d(G)[sp].d(A)[sp].d(T)[sp].d(G)[sp].d([m5C])[sp].d([m5C])[sp].d(T)[sp].d([m5C])[sp].[moe](T)p.[moe]([m5C])p.[moe]([m5C])[sp].[moe](T)}$$$$ (last 3' nucleoside missing) | 4 score 0-7 |
| RNA1{[moe](A)[sp].[moe](A)p.[moe](G)p.[moe](T)p.[moe](G)p.d(G)[sp].d(A)[sp].d(T)[sp].d([m5C])[sp].d(T)[sp].d([m5C])[sp].d(T)[sp].d(T)[sp].d(G)[sp].d(G)[sp].[moe](G)p.[moe]([m5C])p.[moe](A)[sp].[moe](G)}$$$$ (last 3' nucleoside missing) | 4.8 score 0-7 |
| RNA1{[moe](A)[sp].[moe](A)p.[moe](G)p.[moe](T)p.[moe]([m5C])p.d(A)[sp].d(T)[sp].d(T)[sp].d([m5C])[sp].d([m5C])[sp].d([m5C])[sp].d([m5C])[sp].d(A)[sp].d([m5C])[sp].d([m5C])[sp].[moe]([m5C])p.[moe](T)p.[moe](G)[sp].[moe](G)}$$$$ (last 3' nucleoside missing) | 1.8 score 0-7 |
| RNA1{[moe](A)[sp].[moe](A)p.[moe]([m5C])p.[moe](A)p.[moe](A)p.d([m5C])[sp].d(G)[sp].d(G)[sp].d(T)[sp].d(T)[sp].d(G)[sp].d([m5C])[sp].d(A)[sp].d(G)[sp].d(G)[sp].[moe](G)p.[moe](A)p.[moe]([m5C])[sp].[moe](A)}$$$$ (last 3' nucleoside missing) | 6.8 score 0-7 |
| RNA1{[moe](A)[sp].[moe](A)p.[moe]([m5C])p.[moe](G)p.[moe]([m5C])p.[moe](A)p.d(A)[sp].d(T)[sp].d(G)[sp].d(T)[sp].d(A)[sp].d(T)[sp].d([m5C])[sp].d(A)[sp].d(G)[sp].d(G)[sp].[moe]([m5C])p.[moe](A)[sp].[moe](A)}$$$$ (last 3' nucleoside missing) | 4.7 score 0-7 |
| RNA1{[moe](A)[sp].[moe](A)p.[moe]([m5C])p.[moe](G)p.[moe]([m5C])p.d(A)[sp].d(A)[sp].d(T)[sp].d(G)[sp].d(T)[sp].d(A)[sp].d(T)[sp].d([m5C])[sp].d(A)[sp].d(G)[sp].[moe](G)p.[moe]([m5C])p.[moe](A)[sp].[moe](A)}$$$$ (last 3' nucleoside missing) | 1 score 0-7 |
| RNA1{[moe](A)[sp].[moe](A)p.[moe]([m5C])p.[moe](G)p.d([m5C])[sp].d(A)[sp].d(A)[sp].d(T)[sp].d(G)[sp].d(T)[sp].d(A)[sp].d(T)[sp].d([m5C])[sp].d(A)[sp].[moe](G)p.[moe](G)p.[moe]([m5C])p.[moe](A)[sp].[moe](A)}$$$$ (last 3' nucleoside missing) | 2 score 0-7 |
| RNA1{[moe](A)[sp].[moe](A)p.[moe]([m5C])p.[moe](T)p.[moe](G)p.d([m5C])[sp].d(T)[sp].d(T)[sp].d([m5C])[sp].d(A)[sp].d([m5C])[sp].d([m5C])[sp].d(A)[sp].d(T)[sp].d(T)[sp].[moe](T)p.[moe](T)p.[moe](G)[sp].[moe](A)}$$$$ (last 3' nucleoside missing) | 0 score 0-7 |
| RNA1{[moe](A)[sp].[moe](A)p.[moe]([m5C])p.[moe](T)p.[moe](T)p.d([m5C])[sp].d(A)[sp].d(T)[sp].d([m5C])[sp].d(A)[sp].d(A)[sp].d(T)[sp].d(A)[sp].d(T)[sp].d(T)[sp].[moe](T)p.[moe]([m5C])p.[moe]([m5C])[sp].[moe]([m5C])}$$$$ (last 3' nucleoside missing) | 1 score 0-7 |
| RNA1{[moe](A)[sp].[moe](G)p.[moe](A)p.[moe](G)p.[moe](A)p.d([m5C])[sp].d([m5C])[sp].d(T)[sp].d([m5C])[sp].d(A)[sp].d(A)[sp].d(G)[sp].d(A)[sp].d([m5C])[sp].d([m5C])[sp].[moe](T)p.[moe](A)p.[moe](T)[sp].[moe](A)}$$$$ (last 3' nucleoside missing) | 3.8 score 0-7 |
| RNA1{[moe](A)[sp].[moe](G)p.[moe](A)p.[moe](G)p.[moe](G)p.d(A)[sp].d(T)[sp].d(T)[sp].d(T)[sp].d(A)[sp].d(G)[sp].d(A)[sp].d(G)[sp].d(T)[sp].d(T)[sp].[moe](A)p.[moe](A)p.[moe](A)[sp].[moe](A)}$$$$ (last 3' nucleoside missing) | 2.8 score 0-7 |
| RNA1{[moe](A)[sp].[moe](G)p.[moe](A)p.[moe](G)p.[moe](G)p.d([m5C])[sp].d([m5C])[sp].d([m5C])[sp].d(T)[sp].d([m5C])[sp].d(T)[sp].d(T)[sp].d(G)[sp].d(T)[sp].d(T)[sp].[moe](T)p.[moe]([m5C])p.[moe](A)[sp].[moe](A)}$$$$ (last 3' nucleoside missing) | 1.8 score 0-7 |
| RNA1{[moe](A)[sp].[moe](G)p.[moe](A)p.[moe](G)p.[moe](T)p.d(A)[sp].d(G)[sp].d(T)[sp].d([m5C])[sp].d(T)[sp].d(A)[sp].d(T)[sp].d(T)[sp].d(G)[sp].d(G)[sp].[moe](T)p.[moe](G)p.[moe](T)[sp].[moe](T)}$$$$ (last 3' nucleoside missing) | 3.8 score 0-7 |
| RNA1{[moe](A)[sp].[moe](G)p.[moe](A)p.[moe](T)p.[moe](A)p.d([m5C])[sp].d(T)[sp].d([m5C])[sp].d(A)[sp].d([m5C])[sp].d(T)[sp].d([m5C])[sp].d(G)[sp].d([m5C])[sp].d(T)[sp].[moe](T)p.[moe](T)p.[moe](T)[sp].[moe]([m5C])}$$$$ (last 3' nucleoside missing) | 3.2 score 0-7 |
| RNA1{[moe](A)[sp].[moe](G)p.[moe](A)p.[moe]([m5C])p.[moe](T)p.d(A)[sp].d(T)[sp].d([m5C])[sp].d([m5C])[sp].d(T)[sp].d(G)[sp].d(G)[sp].d(T)[sp].d(A)[sp].d(T)[sp].[moe](G)p.[moe](A)p.[moe]([m5C])[sp].[moe](T)}$$$$ (last 3' nucleoside missing) | 6 score 0-7 |
| RNA1{[moe](A)[sp].[moe](G)p.[moe](A)p.[moe]([m5C])p.[moe]([m5C])p.d(T)[sp].d(A)[sp].d(T)[sp].d(A)[sp].d(G)[sp].d(G)[sp].d(A)[sp].d([m5C])[sp].d([m5C])[sp].d(T)[sp].[moe]([m5C])p.[moe](A)p.[moe](G)[sp].[moe](G)}$$$$ (last 3' nucleoside missing) | 4 score 0-7 |
| RNA1{[moe](A)[sp].[moe](G)p.[moe](G)p.[moe](A)p.[moe](T)p.d(T)[sp].d(A)[sp].d(A)[sp].d(A)[sp].d(A)[sp].d(G)[sp].d(T)[sp].d(T)[sp].d(G)[sp].d(A)[sp].[moe](A)p.[moe](A)p.[moe]([m5C])[sp].[moe](A)}$$$$ (last 3' nucleoside missing) | 4 score 0-7 |
| RNA1{[moe](A)[sp].[moe](G)p.[moe](G)p.[moe](A)p.[moe](T)p.d(T)[sp].d([m5C])[sp].d(A)[sp].d(A)[sp].d(T)[sp].d(A)[sp].d(G)[sp].d(T)[sp].d(G)[sp].d(T)[sp].[moe](A)p.[moe](G)p.[moe](G)[sp].[moe](T)}$$$$ (last 3' nucleoside missing) | 6.7 score 0-7 |
| RNA1{[moe](A)[sp].[moe](G)p.[moe](G)p.[moe](A)p.[moe]([m5C])p.d([m5C])[sp].d(T)[sp].d([m5C])[sp].d(A)[sp].d(G)[sp].d(G)[sp].d(A)[sp].d(G)[sp].d(A)[sp].d(T)[sp].[moe](T)p.[moe](G)p.[moe](T)[sp].[moe](A)}$$$$ (last 3' nucleoside missing) | 2.3 score 0-7 |
